Measurements published in patent US20260042755A1, “GPR6 INVERSE AGONISTS” (MapLight Therapeutics, Inc., priority 2022, published 2026).
Blank lines part the entries; values can stand above or below the compound they belong to.

Tests used:
Type in all cases: cell-based
GPR6 = target: T1, GPR6 (Homo sapiens, UniProt P46095); assay: GPR6 antagonist functional cAMP assay (LANCE Ultra cAMP TR-FRET, CHO cells stably expressing GPR6)
T1 construct: expressed in transfected cells; host or cells: CHO cells
Method in brief: (§1)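 Cells in Krebs-Ringer buffer with 0.1% BSA and 150 μM Ro 20-1724 PDE inhibitor were exposed to compounds for 45 min at 37 °C (0.1% DMSO). cAMP was read by TR-FRET at 665 nm; IC50s came from 4-parameter fits normalized to DMSO and reference compound.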

GPR3 = target: T2, GPR3 (Homo sapiens, UniProt P46089); assay: GPR3 antagonist functional cAMP assay (LANCE Ultra cAMP TR-FRET, CHO cells stably expressing GPR3)
T2 construct: expressed in transfected cells; host or cells: CHO cells
Method in brief: as §1

hERG = target: T3, hERG (Homo sapiens, UniProt Q12809); assay: hERG assay (whole-cell manual patch clamp, stably-transfected HEK293/hERG cells); details: tail current, test concentrations 0.1-30 μM, read-out: hERG Assay GMean IC50
T3 construct: expressed in transfected cells; host or cells: HEK293
Description: Stably-transfected HEK293/hERG cells were seeded on poly-ornithine coated glass coverslip and incubated 3-24 h in 35 mm dishes before transferring to the recording chamber. The recording chamber on the stage of a Nikon inverted microscope is continuously perfused with extracellular solution (1-1.5 ml/min). Electrodes were pulled, polished and filled with intracellular solution (tip resistance ˜3-5MΩ). After establishing a tight seal (resistances 1GΩ) between pipette tip and cell membrane, a brief suction is applied to rupture the patched membrane to establish the whole-cell patch clamp configuration. Cells are voltage clamped at −80 mV. The cell was first depolarized to +40 mV for 2s to activate hERG current, and then clamped to −40 mV for 3s to record a tail current. Test articles in various concentrations controlled by a voltage command 8 pinch valve superfusion system were delivered to the proximity of the test cell to record hERG current changes under different conditions with recording done within 30 min.
Intracellular solution (in mM): 130 KCl, 1.0 MgCl2, 5.0 EGTA, 10 HEPES, 5.0 Mg-ATP; adjust pH to 7.25 with 1M KOH; osmolarity approximately at 280 mOsm. Extracellular solution (in mM): 137 NaCl, 1.8 CaCl2, 1.0 MgCl2, 4.0 KCl, 10 Glucose, 10 HEPES; adjust pH to 7.4 with 1 M NaOH; osmolarity approximately at 295 mOsm. Original compound was dissolved in 100% DMSO, then serial diluted with DMSO to respective 1000× of test concentration to make DMSO sub-stocks. The DMSO sub-stocks were diluted 1000 fold to testing solutions (0.1, 0.3, 1, 3, 10, and 30 μM) using extracellular solution. Rapid exposure to test compound was achieved by utilizing a multichannel solenoid-operated flow system. Testing compounds were sequentially applied in increasing order of concentrations after initial application of vehicle solution on EPC-10 manual patch clamping device with the following: • Amplifier: HEKA EPC-10 USB • Nikon Ti-S Inverted Microscope • MP-285/R micromanipulator system • DAD-8VCPP voltage command Pinch valve superfusion system • TMC Shock Absorption Platform • Peristaltic Pump • Sutter Puller • Vapor pressure osmometer • Temperature controller

[1] = CHO cells stably expressing GPR6, cAMP assay
[2] = CHO cells stably expressing GPR3, cAMP assay
[3] = CHO cells stably expressing GPR6, cAMP assay (Example 24)
[4] = CHO cells stably expressing GPR3, cAMP assay (Example 24)
[5] = procedure as described in Example 24

T1 sequence (P46095 whole entry): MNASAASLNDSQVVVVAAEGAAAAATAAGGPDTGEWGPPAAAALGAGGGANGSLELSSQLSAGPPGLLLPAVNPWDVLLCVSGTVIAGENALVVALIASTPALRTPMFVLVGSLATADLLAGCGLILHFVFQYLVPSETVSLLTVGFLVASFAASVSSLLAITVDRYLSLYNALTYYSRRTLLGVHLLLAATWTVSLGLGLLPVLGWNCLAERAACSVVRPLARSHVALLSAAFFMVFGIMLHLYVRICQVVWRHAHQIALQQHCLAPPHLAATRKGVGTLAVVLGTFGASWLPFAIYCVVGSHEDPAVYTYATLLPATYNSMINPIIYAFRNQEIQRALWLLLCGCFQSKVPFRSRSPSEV
T3 sequence (Q12809 whole entry): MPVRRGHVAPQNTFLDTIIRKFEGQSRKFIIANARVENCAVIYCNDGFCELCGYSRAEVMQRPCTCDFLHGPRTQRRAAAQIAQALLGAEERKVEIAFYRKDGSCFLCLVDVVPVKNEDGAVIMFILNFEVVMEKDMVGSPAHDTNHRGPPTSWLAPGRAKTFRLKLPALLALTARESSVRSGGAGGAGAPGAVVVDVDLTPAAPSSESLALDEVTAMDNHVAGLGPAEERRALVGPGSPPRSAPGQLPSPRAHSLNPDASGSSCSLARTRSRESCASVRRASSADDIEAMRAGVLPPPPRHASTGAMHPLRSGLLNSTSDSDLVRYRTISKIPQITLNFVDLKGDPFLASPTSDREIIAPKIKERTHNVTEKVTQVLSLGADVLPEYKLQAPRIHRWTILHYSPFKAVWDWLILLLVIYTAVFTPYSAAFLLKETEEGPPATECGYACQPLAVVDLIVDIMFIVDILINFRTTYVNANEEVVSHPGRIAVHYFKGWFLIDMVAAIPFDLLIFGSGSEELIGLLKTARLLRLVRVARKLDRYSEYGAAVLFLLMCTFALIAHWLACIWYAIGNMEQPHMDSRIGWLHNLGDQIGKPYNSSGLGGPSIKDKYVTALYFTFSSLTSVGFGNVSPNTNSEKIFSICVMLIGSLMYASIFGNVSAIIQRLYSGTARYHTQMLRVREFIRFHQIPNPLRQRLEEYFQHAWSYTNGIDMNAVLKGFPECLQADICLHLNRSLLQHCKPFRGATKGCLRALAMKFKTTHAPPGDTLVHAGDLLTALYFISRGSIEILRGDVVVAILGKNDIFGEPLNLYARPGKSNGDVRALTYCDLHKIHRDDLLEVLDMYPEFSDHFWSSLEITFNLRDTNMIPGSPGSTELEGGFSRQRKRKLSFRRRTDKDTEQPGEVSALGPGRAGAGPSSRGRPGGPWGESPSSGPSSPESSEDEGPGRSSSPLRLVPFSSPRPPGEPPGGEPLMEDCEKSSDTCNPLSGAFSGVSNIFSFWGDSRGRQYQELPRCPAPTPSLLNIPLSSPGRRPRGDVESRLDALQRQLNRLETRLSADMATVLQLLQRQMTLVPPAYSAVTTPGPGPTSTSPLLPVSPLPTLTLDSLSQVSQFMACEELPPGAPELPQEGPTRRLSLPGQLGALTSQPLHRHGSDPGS
T2 sequence (P46089 whole entry, species assumed): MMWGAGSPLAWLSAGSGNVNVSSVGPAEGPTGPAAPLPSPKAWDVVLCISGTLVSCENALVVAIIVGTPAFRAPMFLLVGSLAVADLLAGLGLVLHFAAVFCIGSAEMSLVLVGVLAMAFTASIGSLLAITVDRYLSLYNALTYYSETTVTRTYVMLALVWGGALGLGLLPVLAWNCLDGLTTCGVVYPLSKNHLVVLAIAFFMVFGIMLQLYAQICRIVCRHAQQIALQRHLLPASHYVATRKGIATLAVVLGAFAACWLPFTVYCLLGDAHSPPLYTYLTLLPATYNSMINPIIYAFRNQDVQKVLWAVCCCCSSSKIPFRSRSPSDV

Structure (SMILES): CNC(CO)c1cc2nc(N3CCC(Oc4ccc(F)cc4F)CC3)c(-c3cnn(C)c3)nc2cn1 (stereo not drawn) [Compound 442, 2-{2-[4-(2,4-difluorophenoxy)piperidin-1-yl]-3-(1-methyl-1H-pyrazol-4-yl)pyrido[3,4-b]pyrazin-7-yl}-2-(methylamino)ethan-1-ol]
IC50 (GPR6; [3]): 1 to 30 µM | IC50 (GPR3; [4]): 1 to 30 µM

Structure (SMILES): CC(=O)N1CCc2nc(N3CCC(Oc4ccc(F)cc4F)CC3)c(/C=C3/CCOC3)nc2C1 [Compound 494, 1-{2-[4-(2,4-difluorophenoxy)piperidin-1-yl]-3-{[(3Z)-oxolan-3-ylidene]methyl}-5H,6H,7H,8H-pyrido[3,4-b]pyrazin-6-yl}ethan-1-one]
IC50 (GPR6; [1]): 0.1 to 1 µM | IC50 (GPR3; [2]): 1 to 30 µM

Structure (SMILES): CCn1cc(-c2nc3c(nc2N2CCC(Oc4ccc(F)cc4F)CC2)CCN(C(=O)CO)C3)cn1 [Compound 311, 1-{2-[4-(2,4-difluorophenoxy)piperidin-1-yl]-3-(1-ethyl-1H-pyrazol-4-yl)-5H,6H,7H,8H-pyrido[3,4-b]pyrazin-6-yl}-2-hydroxyethan-1-one]
IC50 (GPR6; procedure of Example 24): < 0.1 µM | IC50 (GPR3; procedure of Example 24): 1 to 30 µM

Structure (SMILES): CC(=O)N1CCc2nc(N3CCC(Oc4ccc(F)cc4F)CC3)c(-c3cccc(C(F)(F)F)n3)nc2C1 [Compound 50, 1-{2-[4-(2,4-difluorophenoxy)piperidin-1-yl]-3-[6-(trifluoromethyl)pyridin-2-yl]-5H,6H,7H,8H-pyrido[3,4-b]pyrazin-6-yl}ethan-1-one]
IC50 (GPR6; [5]): 0.1 to 1 µM | IC50 (GPR3; [5]): 1 to 30 µM

Structure (SMILES): Cn1cc(-c2nc3cnc(C(N)=O)cc3nc2N2CCC(Oc3ccc(F)cc3F)CC2)cn1 [Compound 330, 2-[4-(2,4-difluorophenoxy)piperidin-1-yl]-3-(1-methyl-1H-pyrazol-4-yl)pyrido[3,4-b]pyrazine-7-carboxamide]
IC50 (GPR6; procedure of Example 24): 0.1 to 1 µM | IC50 (GPR3; procedure of Example 24): 1 to 30 µM

Structure (SMILES): CC(=O)N1CCc2nc(N3CCN(Cc4ccc(F)cc4C#N)CC3)c(-c3cnn(C)c3)nc2C1 [Compound 355, 2-({4-[6-acetyl-3-(1-methyl-1H-pyrazol-4-yl)-5H,6H,7H,8H-pyrido[3,4-b]pyrazin-2-yl]piperazin-1-yl}methyl)-5-fluorobenzonitrile]
IC50 (GPR6; procedure of Example 24): 1 to 30 µM | IC50 (GPR3; procedure of Example 24): 1 to 30 µM

Structure (SMILES): COC(C)(C)C(=O)N1CCc2nc(N3CCC(Oc4ccc(F)cc4F)CC3)c(-c3cnn(C4CCCCO4)c3)nc2C1 (stereo not drawn) [Compound 173, 1-{2-[4-(2,4-difluorophenoxy)piperidin-1-yl]-3-[1-(oxan-2-yl)-1H-pyrazol-4-yl]-5H,6H,7H,8H-pyrido[3,4-b]pyrazin-6-yl}-2-methoxy-2-methylpropan-1-one]
IC50 (GPR6; [3]): 1 to 30 µM | IC50 (GPR3; [4]): 1 to 30 µM

Structure (SMILES): COC(C)(C)C(=O)N1CCc2nc(N3CCC(Oc4ccc(F)cc4F)CC3)c(-c3cn[nH]c3)nc2C1 [Compound 174, 1-{2-[4-(2,4-difluorophenoxy)piperidin-1-yl]-3-(1H-pyrazol-4-yl)-5H,6H,7H,8H-pyrido[3,4-b]pyrazin-6-yl}-2-methoxy-2-methylpropan-1-one]
IC50 (GPR6; [3]): 0.1 to 1 µM | IC50 (GPR3; [4]): 1 to 30 µM

The next lines start with results.

IC50 (GPR6; [1]): < 0.1 µM | IC50 (GPR3; [2]): 1 to 30 µM
Structure (SMILES): CCn1cc(-c2nc3cnc([C@H](O)C(C)(C)O)cc3nc2N2CCN(Cc3ccc(F)cc3F)CC2)cn1 (single isomer, unassigned) [Compound 575]
IC50 (hERG): 21.7 µM

IC50 (GPR6; procedure of Example 24): 0.1 to 1 µM | IC50 (GPR3; procedure of Example 24): 1 to 30 µM
Structure (SMILES): CC(C)(O)[C@](C)(O)c1cc2nc(-c3cnn(CF)c3)c(N3CCN(Cc4ccccc4F)CC3)nc2cn1 (single isomer, unassigned) [Compound 716]
IC50 (hERG): 24.3 µM

IC50 (GPR6; procedure of Example 24): 0.1 to 1 µM | IC50 (GPR3; procedure of Example 24): 1 to 30 µM
Structure (SMILES): CC(C)(O)C(O)c1cc2nc(-c3cnn(CF)c3)c(N3CCN(Cc4ccccc4F)CC3)nc2cn1 (single isomer, unassigned) [Compound 707]
IC50 (hERG): > 30 µM

IC50 (GPR6; [1]): 0.1 to 1 µM | IC50 (GPR3; [2]): 1 to 30 µM
Structure (SMILES): CC(C)(O)[C@@H](O)c1cc2nc(N3CCN(Cc4ccc(F)cc4F)CC3)c(-c3cnn(C4CC4)c3)nc2cn1 (single isomer, unassigned) [Compound 577]
IC50 (hERG): 13.6 µM

IC50 (GPR6; procedure of Example 24): 0.1 to 1 µM | IC50 (GPR3; procedure of Example 24): 1 to 30 µM
Structure (SMILES): CC(C)(O)[C@@H](O)c1cc2nc(N3CCN(Cc4ccccc4F)CC3)c(-c3cnn(C(F)F)c3)nc2cn1 (single isomer, unassigned) [Compound 613]

IC50 (GPR6; [3]): 0.1 to 1 µM | IC50 (GPR3; [4]): 1 to 30 µM
Structure (SMILES): CC(C)(O)C(O)c1cc2nc(N3CCC(Oc4ccc(F)cc4F)CC3)c(-c3cnn(C4CC4)c3)nc2cn1 (stereo not drawn) [Compound 469, 1-[3-(1-cyclopropyl-1H-pyrazol-4-yl)-2-[4-(2,4-difluorophenoxy)piperidin-1-yl]pyrido[3,4-b]pyrazin-7-yl]-2-methylpropane-1,2-diol]

IC50 (GPR6; procedure of Example 24): 0.1 to 1 µM | IC50 (GPR3; procedure of Example 24): 1 to 30 µM
Structure (SMILES): CC(C)(O)[C@@](C)(O)c1cc2nc(N3CCN(Cc4ccccc4F)CC3)c(-c3cnn(C4CC4)c3)nc2cn1 (single isomer, unassigned) [Compound 747]

IC50 (GPR6; procedure of Example 24): 0.1 to 1 µM | IC50 (GPR3; procedure of Example 24): 1 to 30 µM
Structure (SMILES): CC(C)(O)[C@H](O)c1cc2nc(N3CCN(Cc4ccccc4F)CC3)c(-c3cnn(C4CC4)c3)nc2cn1 (single isomer, unassigned) [Compound 732]
